Molecules are shown by their SMILES.

The target in this assay is T1, Androgen Receptor (AR) (Homo sapiens, UniProt P10275, T878A).
T1 construct: cell based immuno-fluorescence assay using the LNCaP prostate epithelial cell line; endogenous in cells; host or cells: LNCaP clone FGC (ATCC CRL-1740)
T1 sequence (P10275 1-920 T878A): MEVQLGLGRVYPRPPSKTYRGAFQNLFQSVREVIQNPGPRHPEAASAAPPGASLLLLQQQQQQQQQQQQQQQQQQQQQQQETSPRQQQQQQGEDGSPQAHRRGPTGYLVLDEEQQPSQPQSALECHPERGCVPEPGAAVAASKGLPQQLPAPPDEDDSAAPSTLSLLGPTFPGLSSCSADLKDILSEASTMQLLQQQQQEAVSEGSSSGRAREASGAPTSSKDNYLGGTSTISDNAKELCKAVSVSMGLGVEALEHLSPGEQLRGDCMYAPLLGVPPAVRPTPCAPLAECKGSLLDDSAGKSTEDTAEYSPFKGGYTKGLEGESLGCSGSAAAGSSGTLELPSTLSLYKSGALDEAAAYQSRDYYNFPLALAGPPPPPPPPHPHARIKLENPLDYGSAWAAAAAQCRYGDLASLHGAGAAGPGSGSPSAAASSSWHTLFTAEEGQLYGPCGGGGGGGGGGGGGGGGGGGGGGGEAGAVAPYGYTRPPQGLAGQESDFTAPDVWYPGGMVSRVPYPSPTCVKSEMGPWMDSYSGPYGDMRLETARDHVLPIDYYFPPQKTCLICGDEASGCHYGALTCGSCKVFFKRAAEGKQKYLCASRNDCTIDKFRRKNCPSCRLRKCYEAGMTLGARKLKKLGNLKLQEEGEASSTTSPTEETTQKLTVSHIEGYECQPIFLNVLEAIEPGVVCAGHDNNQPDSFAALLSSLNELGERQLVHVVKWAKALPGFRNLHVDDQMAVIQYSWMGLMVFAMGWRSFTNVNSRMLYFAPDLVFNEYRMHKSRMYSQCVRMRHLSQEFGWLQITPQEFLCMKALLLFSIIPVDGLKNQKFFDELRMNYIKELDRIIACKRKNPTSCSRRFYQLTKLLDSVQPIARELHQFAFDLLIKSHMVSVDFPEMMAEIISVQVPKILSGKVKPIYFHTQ
Kind of assay: LNCaP Androgen Receptor Down-regulation Cell Assay (immunofluorescence end point). It counts as cell-based. Conditions: LNCaP prostate carcinoma cells, compound incubation 20-22 hours, 50% reduction of the AR signal; read-out: Androgen Receptor Down-regulation Assay (a) IC50/μM. Here is the method:
The ability of compounds to reduce Androgen Receptor (AR) numbers was assessed in a cell based immuno-fluorescence assay using the LNCaP prostate epithelial cell line.
a) LNCaP Androgen Receptor Down-regulation Cell Assay
A 5 ml volume of Growth Medium was added to each flask (as above except that 5% (v/v) charcoal stripped FBS (HyClone Code no. SH30068.03) was included instead of 10% (v/v) FBS). Cells were syringed at least twice using a sterile 18G×1.5″ (1.2×40 mm) broad gauge needle and cell density was measured using a haemocytometer.
Test data reported herein was generated using two different compounds preparation and dosing methods. In method (1) a 10 mM compound stock solution in 100% (v/v) DMSO was serially diluted in 4-fold steps in 100% (v/v) DMSO using a Thermo Scientific Matrix SerialMate. The diluted compounds were then further diluted 1 in 30 in assay media using a Thermo Scientific Matrix PlateMate and a 10 μl aliquot of this dilution was dosed to cells manually using a multi-channel pipette. In method (2) starting with a 10 mM compound stock solution, the Labcyte Echo 550 was used to generate a compound concentration response set diluted in 30 μl of assay media. The Echo 550 is a liquid handler that uses acoustic technology to perform direct microplate-to-microplate transfers of DMSO compound solutions. The system can be programmed to transfer volumes as low as […] in multiple increments between microplates and in so doing generates a serial dilution of compound which is then back-filled to normalise the DMSO concentration across the dilution range. A 10 μl volume of diluted compound is then dosed to cells using a Thermo Scientific Matrix PlateMate.
Plates were incubated overnight at 37° C., 5% CO2. Wells were then dosed with compound prepared by one of the 2 methods above and further incubated for 20-22 hours at 37° C., 5% CO2. […] This fixative solution was removed and cells were washed with 250 μl of PBS/0.05% (v/v) Tween 20 (PBST) using an automated plate washer. This process was then repeated twice more.
Immunostaining was performed at room temperature. Cells were permeabilised by the addition of 35 μl of PBS containing 0.5% Tween 20 and incubated for 1 hour at room temperature. Permeabilisation solution was removed and cells were washed with 250 μl of PBST using an automated plate washer. This process was then repeated twice more. 35 μl of Blocking Solution (PBST containing 3% (w/v) Marvel dried skimmed milk (Nestle)) was added to each well and plates were incubated at room temperature for a minimum of 1 hour. […] Then this primary antibody solution was removed from the wells followed by 3×100 μl PBST washes using a plate washer. […] Henceforth, wherever possible, plates were protected from light exposure. The plates were incubated for 1 hour and then the secondary antibody solution was removed from the wells followed by 3×100 ul PBST washes using a plate washer. Then 50 μl of PBST was added to each well and plates were covered with a black plate seal and stored at 4° C. before being read. Plates were read within six hours of completing the immunostaining.
The Green Fluorescent AR-associated signal in each well was measured using an Acumen Explorer HTS Reader (TTP Labtech Ltd., Cambridge). […] The instrument is a laser-scanning fluorescence microplate cytometer which samples the well at regular intervals and uses threshold algorithms to identify all fluorescent intensities above the solution background without the need to generate and analyse an image. These fluorescent objects can be quantified and provide a measure of the AR levels in cells. Fluorescence dose response data obtained with each compound was exported into a suitable software package (such as Origin) to perform curve fitting analysis. Down-regulation of AR levels was expressed as an IC50 value.
For the compound `N#Cc1ccccc1CN1CCN(c2ccc3nnc(C(F)(F)F)n3n2)CC1` [Example 59, 2-[[4-[3-(trifluoromethyl)-[1,2,4]triazolo[4,3-b]pyridazin-6-yl]piperazin-1-yl]methyl]benzonitrile], the DC50 was 2.7 µM.
Take `FC(F)(F)c1nnc2ccc(N3CCN(Cc4csc5ccccc45)CC3)nn12` [Example 60, 6-[4-(1-benzothiophen-3-ylmethyl)piperazin-1-yl]-3-(trifluoromethyl)-[1,2,4]triazolo[4,3-b]pyridazine]: the DC50 turned out to be 0.61 µM.
Consider `FC(F)(F)c1nnc2ccc(N3CCN(Cc4cscn4)CC3)nn12` [Example 61, 6-[4-(1,3-thiazol-4-ylmethyl)piperazin-1-yl]-3-(trifluoromethyl)-[1,2,4]triazolo[4,3-b]pyridazine], for which the DC50 came to 7.4 µM.
Next, `FC(F)(F)c1nnc2ccc(N3CCN(Cc4ccccc4Cl)CC3)nn12` [Example 62, 6-[4-[(2-chlorophenyl)methyl]piperazin-1-yl]-3-(trifluoromethyl)-[1,2,4]triazolo[4,3-b]pyridazine]: 0.72 µM; `FC(F)(F)c1nnc2ccc(N3CCN(Cc4cccc5cc[nH]c45)CC3)nn12` [Example 63, 6-[4-(1H-indol-7-ylmethyl)piperazin-1-yl]-3-(trifluoromethyl)-[1,2,4]triazolo[4,3-b]pyridazine]: 1.5 µM; `FC(F)(F)c1nnc2ccc(N3CCN(Cc4cnc5ccccc5c4)CC3)nn12` [Example 64, 3-[[4-[3-(trifluoromethyl)[1,2,4]triazolo[4,3-b]pyridazin-6-yl]piperazin-1-yl]methyl]quinoline]: 2.5 µM.
As to `FC(F)(F)c1nnc2ccc(N3CCN(Cc4cccc5cnccc45)CC3)nn12` [Example 65, 5-[[4-[3-(trifluoromethyl)-[1,2,4]triazolo[4,3-b]pyridazin-6-yl]piperazin-1-yl]methyl]isoquinoline], the DC50 was 0.76 µM.
Next, `FC(F)(F)c1nnc2ccc(N3CCN(Cc4cccc5ccccc45)CC3)nn12` [Example 66, 6-[4-(naphthalen-1-ylmethyl)piperazin-1-yl]-3-(trifluoromethyl)-[1,2,4]triazolo[4,3-b]pyridazine]: 0.33 µM; `FC(F)(F)c1ccccc1CN1CCN(c2ccc3nnc(C(F)(F)F)n3n2)CC1` [Example 67, 3-(trifluoromethyl)-6-[4-[[2-(trifluoromethyl)phenyl]methyl]piperazin-1-yl]-[1,2,4]triazolo[4,3-b]pyridazine]: 1 µM.
With `Cn1c(CN2CCN(c3ccc4nnc(C(F)(F)F)n4n3)CC2)cc2ccccc21` [Example 69, 6-[4-[(1-methylindol-2-yl)methyl]piperazin-1-yl]-3-(trifluoromethyl)-[1,2,4]triazolo[4,3-b]pyridazine] the figure was 1.4 µM.
Next, `FC(F)(F)c1nnc2ccc(N3CCN(Cc4cccs4)CC3)nn12` [Example 70, 6-[4-(thiophen-2-ylmethyl)piperazin-1-yl]-3-(trifluoromethyl)-[1,2,4]triazolo[4,3-b]pyridazine]: 0.64 µM; `Cn1cc(CN2CCN(c3ccc4nnc(C(F)(F)F)n4n3)CC2)c2ccccc21` [Example 71, 6-[4-[(1-methylindol-3-yl)methyl]piperazin-1-yl]-3-(trifluoromethyl)-[1,2,4]triazolo[4,3-b]pyridazine]: 1.4 µM.
For `Fc1ccccc1CN1CCN(c2ccc3nnc(C(F)(F)F)n3n2)CC1` [Example 72, 6-[4-[(2-fluorophenyl)methyl]piperazin-1-yl]-3-(trifluoromethyl)-[1,2,4]triazolo[4,3-b]pyridazine], the DC50 was 1 µM.
In the case of `CS(=O)(=O)c1cccc(CN2CCN(c3ccc4nnc(C(F)(F)F)n4n3)CC2)c1` [Example 74, 6-[4-[(3-methylsulfonylphenyl)methyl]piperazin-1-yl]-3-(trifluoromethyl)-[1,2,4]triazolo[4,3-b]pyridazine], the DC50 was 5.6 µM.
With `COc1ccccc1CN1CCN(c2ccc3nnc(C(F)(F)F)n3n2)CC1` [Example 75, 6-[4-[(2-methoxyphenyl)methyl]piperazin-1-yl]-3-(trifluoromethyl)-[1,2,4]triazolo[4,3-b]pyridazine] the figure was 2.3 µM; with `FC(F)(F)c1nnc2ccc(N3CCN(Cc4cccc5c4OCCO5)CC3)nn12` [Example 76, 6-[4-(2,3-dihydro-1,4-benzodioxin-5-ylmethyl)piperazin-1-yl]-3-(trifluoromethyl)-[1,2,4]triazolo[4,3-b]pyridazine], 2.3 µM.
Turning to `FC(F)(F)c1nnc2ccc(N3CCN(Cc4ccc5[nH]ccc5c4)CC3)nn12` [Example 77, 6-[4-(1H-indol-5-ylmethyl)piperazin-1-yl]-3-(trifluoromethyl)-[1,2,4]triazolo[4,3-b]pyridazine], the DC50 came out at 1.4 µM.
With `FC(F)(F)c1nnc2ccc(N3CCN(Cc4ccco4)CC3)nn12` [Example 79, 6-[4-(furan-2-ylmethyl)piperazin-1-yl]-3-(trifluoromethyl)-[1,2,4]triazolo[4,3-b]pyridazine] the figure was 2.4 µM; with `FC(F)(F)c1nnc2ccc(N3CCN(Cc4cccnc4)CC3)nn12` [Example 81, 6-[4-(pyridin-3-ylmethyl)piperazin-1-yl]-3-(trifluoromethyl)-[1,2,4]triazolo[4,3-b]pyridazine], 7.2 µM.
Next, `COc1cccc(CN2CCN(c3ccc4nnc(C(F)(F)F)n4n3)CC2)c1` [Example 82, 6-[4-[(3-methoxyphenyl)methyl]piperazin-1-yl]-3-(trifluoromethyl)-[1,2,4]triazolo[4,3-b]pyridazine]: 1.6 µM; `FC(F)(F)c1nnc2ccc(N3CCN(Cc4ccc[nH]4)CC3)nn12` [Example 83, 6-[4-(1H-pyrrol-2-ylmethyl)piperazin-1-yl]-3-(trifluoromethyl)-[1,2,4]triazolo[4,3-b]pyridazine]: 2.5 µM.
`FC(F)(F)c1nnc2ccc(N3CCN(Cc4ccc5c(c4)CCO5)CC3)nn12` [Example 84, 6-[4-(2,3-dihydro-1-benzofuran-5-ylmethyl)piperazin-1-yl]-3-(trifluoromethyl)-[1,2,4]triazolo[4,3-b]pyridazine]: the DC50 stood at 1.8 µM.
